{
  "source": "paper PMC5218480",
  "about": "(PLoS ONE, 2017)",
  "tested_on": "MV-4-11 cells",
  "test": "Gene expression microarray analysis (Affymetrix PrimeView) and GSEA",
  "format": "cell-based, human",
  "set-up": "RFU PODN (11730768_x_at) / Fold change /veh PODN (11730768_x_at) / RFU LINC00158 (11744669_a_at) / Fold change /veh LINC00158 (11744669_a_at) / RFU DUSP10 (11751237_a_at) / Fold change /veh DUSP10 (11751237_a_at) / RFU ID3 (11757404_x_at) / Fold change /veh ID3 (11757404_x_at) / RFU PLEKHG5 (11737974_s_at) / Fold change /veh PLEKHG5 (11737974_s_at) / RFU LRRC4B (11730491_at) / Fold change /veh LRRC4B (11730491_at) / RFU GIMAP4 (11747438_a_at) / Fold change /veh GIMAP4 (11747438_a_at) / RFU KRT8 (11758183_x_at) / Fold change /veh KRT8 (11758183_x_at) / RFU CNN1 (11734310_a_at) / Fold change /veh CNN1 (11734310_a_at) / RFU VPS37D (11726825_at) / Fold change /veh VPS37D (11726825_at) / RFU C10orf10 (11716522_x_at) / Fold change /veh C10orf10 (11716522_x_at) / RFU KIR2DL2 /// KIR2DL4 /// KIR2DL5A /// KIR2DL5B /// KIR2DS1 /// KIR2DS2 /// KIR2DS3 /// KIR2DS4 /// KIR3DL3 /// KIR3DL3 /// KIR3DS1 (11738374_at) / Fold change /veh KIR2DL2 /// KIR2DL4 /// KIR2DL5A /// KIR2DL5B /// KIR2DS1 /// KIR2DS2 /// KIR2DS3 /// KIR2DS4 /// KIR3DL3 /// KIR3DL3 /// KIR3DS1 (11738374_at) / RFU C1QL1 (11718748_at) / Fold change /veh C1QL1 (11718748_at) / RFU TMPRSS4 (11747572_a_at) / Fold change /veh TMPRSS4 (11747572_a_at) / RFU HAMP (11756126_x_at) / Fold change /veh HAMP (11756126_x_at) / RFU RNFT2 (11725882_a_at) / Fold change /veh RNFT2 (11725882_a_at) / RFU NR4A2 (11747474_a_at) / Fold change /veh NR4A2 (11747474_a_at) / RFU ABCC12 (11746883_a_at) / Fold change /veh ABCC12 (11746883_a_at) / RFU TMEM136 (11760407_x_at) / Fold change /veh TMEM136 (11760407_x_at) / RFU CLDN22 /// WWC2 (11732394_at) / Fold change /veh CLDN22 /// WWC2 (11732394_at) / RFU HLA-DPB1 (11760878_x_at) / Fold change /veh HLA-DPB1 (11760878_x_at) / RFU SPINT1 (11716480_a_at) / Fold change /veh SPINT1 (11716480_a_at) / RFU GAP43 (11754022_s_at) / Fold change /veh GAP43 (11754022_s_at) / RFU A4GNT (11735810_at) / Fold change /veh A4GNT (11735810_at) / RFU PRB3 (11715151_x_at) / Fold change /veh PRB3 (11715151_x_at) / RFU TUBB4B (11761932_at) / Fold change /veh TUBB4B (11761932_at) / RFU CAPN14 (11732068_a_at) / Fold change /veh CAPN14 (11732068_a_at) / RFU TMCC2 (11721928_a_at) / Fold change /veh TMCC2 (11721928_a_at) / RFU IRGQ (11745062_a_at) / Fold change /veh IRGQ (11745062_a_at) / RFU FAM174B (11720279_a_at) / Fold change /veh FAM174B (11720279_a_at) / RFU TMPRSS4 (11748680_a_at) / Fold change /veh TMPRSS4 (11748680_a_at) / RFU FAM212B (11763350_a_at) / Fold change /veh FAM212B (11763350_a_at) / RFU PLEKHG5 (11743358_a_at) / Fold change /veh PLEKHG5 (11743358_a_at) / RFU ZSCAN30 (11745921_a_at) / Fold change /veh ZSCAN30 (11745921_a_at) / RFU CMKLR1 (11741424_a_at) / Fold change /veh CMKLR1 (11741424_a_at) / RFU LOC101060620 /// MAPK8IP1 (11723275_at) / Fold change /veh LOC101060620 /// MAPK8IP1 (11723275_at) / RFU SPTSSB (11747773_x_at) / Fold change /veh SPTSSB (11747773_x_at) / RFU PRSS12 (11739890_at) / Fold change /veh PRSS12 (11739890_at) / RFU BIN1 (11741810_x_at) / Fold change /veh BIN1 (11741810_x_at) / RFU WNT11 (11732464_a_at) / Fold change /veh WNT11 (11732464_a_at) / RFU C10orf10 (11716521_a_at) / Fold change /veh C10orf10 (11716521_a_at) / RFU C5orf56 (11738089_at) / Fold change /veh C5orf56 (11738089_at) / RFU CYB561 (11721691_x_at) / Fold change /veh CYB561 (11721691_x_at) / RFU ANKRD19P (11752326_a_at) / Fold change /veh ANKRD19P (11752326_a_at) / RFU OR2T12 /// OR2T33 /// OR2T8 (11738714_s_at) / Fold change /veh OR2T12 /// OR2T33 /// OR2T8 (11738714_s_at) / RFU VCAN (11748164_a_at) / Fold change /veh VCAN (11748164_a_at) / RFU JSRP1 (11732532_at) / Fold change /veh JSRP1 (11732532_at) / RFU KRTAP10-11 (11738290_x_at) / Fold change /veh KRTAP10-11 (11738290_x_at) / RFU MYO3A (11730013_a_at) / Fold change /veh MYO3A (11730013_a_at) / RFU EBF3 (11725865_a_at) / Fold change /veh EBF3 (11725865_a_at) / RFU CAMK2N1 (11719241_x_at) / Fold change /veh CAMK2N1 (11719241_x_at) / RFU C5orf56 (11738088_a_at) / Fold change /veh C5orf56 (11738088_a_at) / RFU OLFML3 (11715873_a_at) / Fold change /veh OLFML3 (11715873_a_at) / RFU LOC100653217 /// NTM (11731650_a_at) / Fold change /veh LOC100653217 /// NTM (11731650_a_at) / RFU MAPK11 (11762145_a_at) / Fold change /veh MAPK11 (11762145_a_at) / RFU FIZ1 (11724087_x_at) / Fold change /veh FIZ1 (11724087_x_at) / RFU OASL (11726364_x_at) / Fold change /veh OASL (11726364_x_at) / RFU SOX15 (11748057_x_at) / Fold change /veh SOX15 (11748057_x_at) / RFU CD79A (11719716_a_at) / Fold change /veh CD79A (11719716_a_at) / RFU HIST1H1D (11736915_at) / Fold change /veh HIST1H1D (11736915_at) / RFU CASKIN2 (11723855_a_at) / Fold change /veh CASKIN2 (11723855_a_at) / RFU LOC730098 (11760151_x_at) / Fold change /veh LOC730098 (11760151_x_at) / RFU OR4N2 (11742367_at) / Fold change /veh OR4N2 (11742367_at) / RFU PRRT2 (11749266_a_at) / Fold change /veh PRRT2 (11749266_a_at) / RFU SNX32 (11753110_a_at) / Fold change /veh SNX32 (11753110_a_at) / RFU CDHR5 (11726645_a_at) / Fold change /veh CDHR5 (11726645_a_at) / RFU RCAN1 (11760418_a_at) / Fold change /veh RCAN1 (11760418_a_at) / RFU FAM167A (11723789_a_at) / Fold change /veh FAM167A (11723789_a_at) / RFU FAM26E (11764081_at) / Fold change /veh FAM26E (11764081_at) / RFU ISYNA1 (11749810_s_at) / Fold change /veh ISYNA1 (11749810_s_at) / RFU ACY1 (11761880_at) / Fold change /veh ACY1 (11761880_at) / RFU 11764098_at / Fold change /veh 11764098_at / RFU SAMD14 (11745864_x_at) / Fold change /veh SAMD14 (11745864_x_at) / RFU NPB (11741838_a_at) / Fold change /veh NPB (11741838_a_at) / RFU TMPRSS6 (11731388_a_at) / Fold change /veh TMPRSS6 (11731388_a_at) / RFU KRTAP10-2 (11738614_at) / Fold change /veh KRTAP10-2 (11738614_at) / RFU ARHGAP8 /// PRR5-ARHGAP8 (11727945_x_at) / Fold change /veh ARHGAP8 /// PRR5-ARHGAP8 (11727945_x_at) / RFU KRTAP5-7 /// NADSYN1 (11734609_at) / Fold change /veh KRTAP5-7 /// NADSYN1 (11734609_at) / RFU RASL12 (11751679_a_at) / Fold change /veh RASL12 (11751679_a_at) / RFU CDKN2B (11736163_a_at) / Fold change /veh CDKN2B (11736163_a_at) / RFU PRF1 (11729649_at) / Fold change /veh PRF1 (11729649_at) / RFU, ZNF638 /// ZNF638-IT1 / Fold change vs veh, ZNF638 /// ZNF638-IT1 / RFU, PANK3 / Fold change vs veh, PANK3 / RFU, SH3YL1 / Fold change vs veh, SH3YL1 / RFU, ZEB2 / Fold change vs veh, ZEB2 / RFU, NRIP1 / Fold change vs veh, NRIP1 / RFU, PTTG1IP / Fold change vs veh, PTTG1IP / RFU, CAPN2 / Fold change vs veh, CAPN2 / RFU, MED14 / Fold change vs veh, MED14 / RFU, SNORA58 / Fold change vs veh, SNORA58 / RFU, C1orf63 / Fold change vs veh, C1orf63 / RFU, LRRFIP1 / Fold change vs veh, LRRFIP1 / RFU, NDUFAF7 / Fold change vs veh, NDUFAF7 / RFU, SLC12A2 / Fold change vs veh, SLC12A2 / RFU, IBTK / Fold change vs veh, IBTK / RFU, ESF1 / Fold change vs veh, ESF1 / Fold change vs veh, TMEM50B / RFU, TAOK1 / Fold change vs veh, TAOK1 / RFU, ACBD3 / Fold change vs veh, ACBD3 / RFU, TMA16 / Fold change vs veh, TMA16 / RFU, RWDD3 / Fold change vs veh, RWDD3 / RFU, BCAT1 / Fold change vs veh, BCAT1 / RFU, EDEM3 / Fold change vs veh, EDEM3 / RFU, TMEM33 / Fold change vs veh, TMEM33 / RFU, WDR75 / Fold change vs veh, WDR75 / RFU, AHCTF1 / Fold change vs veh, AHCTF1 / RFU, TFRC / Fold change vs veh, TFRC / RFU, ZDHHC17 / Fold change vs veh, ZDHHC17 / RFU, NOM1 / Fold change vs veh, NOM1 / RFU, ARL8B / Fold change vs veh, ARL8B / RFU, ZBTB11 / Fold change vs veh, ZBTB11 / RFU, TAMM41 / Fold change vs veh, TAMM41 / RFU, KIAA1704 /// LOC100996395 / Fold change vs veh, KIAA1704 /// LOC100996395 / RFU, ING1 / Fold change vs veh, ING1 / RFU, TRMT61B / Fold change vs veh, TRMT61B / RFU, FUBP3 / Fold change vs veh, FUBP3 / RFU, TP53 / Fold change vs veh, TP53 / RFU, TNKS2 / Fold change vs veh, TNKS2 / RFU, ZFP14 / Fold change vs veh, ZFP14 / RFU, ACTR2 / Fold change vs veh, ACTR2 / RFU, PPP3R1 / Fold change vs veh, PPP3R1 / RFU, PIK3R1 / Fold change vs veh, PIK3R1 / RFU, HNRNPA1 / Fold change vs veh, HNRNPA1 / RFU, RNF170 / Fold change vs veh, RNF170 / RFU, ZNF28 / Fold change vs veh, ZNF28 / RFU, RNGTT / Fold change vs veh, RNGTT / RFU, OGT / Fold change vs veh, OGT / RFU, BRD1 / Fold change vs veh, BRD1 / RFU, MARS / Fold change vs veh, MARS / RFU, ZNF655 / Fold change vs veh, ZNF655 / RFU, FAHD1 / Fold change vs veh, FAHD1 / RFU, BDP1 / Fold change vs veh, BDP1 / RFU, LRRCC1 / Fold change vs veh, LRRCC1 / RFU, ARID1A / Fold change vs veh, ARID1A / RFU, ZNF146 / Fold change vs veh, ZNF146 / RFU, ZNF330 / Fold change vs veh, ZNF330 / RFU, GPN3 / Fold change vs veh, GPN3 / RFU, C9orf123 / Fold change vs veh, C9orf123 / RFU, N4BP2L2 / Fold change vs veh, N4BP2L2 / RFU, ARFIP1 / Fold change vs veh, ARFIP1 / RFU, FAM179B / Fold change vs veh, FAM179B / RFU, BCL10 / Fold change vs veh, BCL10 / RFU, UHRF1BP1L / Fold change vs veh, UHRF1BP1L / RFU, BET1 / Fold change vs veh, BET1 / RFU, CNOT2 / Fold change vs veh, CNOT2 / RFU, ZNF268 / Fold change vs veh, ZNF268 / Fold change vs veh, ZNF507 / RFU, DGCR2 / Fold change vs veh, DGCR2 / RFU, WDSUB1 / Fold change vs veh, WDSUB1 / Fold change vs veh, HSP90B1 /// MIR3652 / RFU, ADSS / Fold change vs veh, ADSS / RFU, GK / Fold change vs veh, GK / RFU, ZNF148 / Fold change vs veh, ZNF148 / RFU, TAF9 / Fold change vs veh, TAF9 / RFU, SLC1A5 / Fold change vs veh, SLC1A5 / RFU, SLMO2 / Fold change vs veh, SLMO2 / RFU, ABCC4 / Fold change vs veh, ABCC4 / RFU, LOC101060439 /// RAP1B / Fold change vs veh, LOC101060439 /// RAP1B / RFU, RFX7 / Fold change vs veh, RFX7 / RFU, GTPBP10 / Fold change vs veh, GTPBP10 / RFU, CNEP1R1 / Fold change vs veh, CNEP1R1 / RFU, BIVM-ERCC5 /// ERCC5 / Fold change vs veh, BIVM-ERCC5 /// ERCC5 / RFU, ILF3 / Fold change vs veh, ILF3 / RFU 11762660_at / Fold change /veh 11762660_at / RFU VCAN (11757783_s_at) / Fold change /veh VCAN (11757783_s_at) / RFU DDX43 (11728927_at) / Fold change /veh DDX43 (11728927_at) / RFU KRT8 (11758188_x_at) / Fold change /veh KRT8 (11758188_x_at) / RFU NKD1 (11759106_at) / Fold change /veh NKD1 (11759106_at) / RFU SRD5A1 (11742802_a_at) / Fold change /veh SRD5A1 (11742802_a_at) / RFU TPSAB1 /// TPSB2 (11721975_s_at) / Fold change /veh TPSAB1 /// TPSB2 (11721975_s_at) / RFU GSTM3 (11746129_a_at) / Fold change /veh GSTM3 (11746129_a_at) / RFU IL23R (11737362_x_at) / Fold change /veh IL23R (11737362_x_at) / RFU TMEM51 (11727254_a_at) / Fold change /veh TMEM51 (11727254_a_at) / RFU PIWIL2 (11732686_x_at) / Fold change /veh PIWIL2 (11732686_x_at) / RFU ORM1 (11744905_x_at) / Fold change /veh ORM1 (11744905_x_at) / RFU CCDC152 (11743942_at) / Fold change /veh CCDC152 (11743942_at) / RFU ECM1 (11717891_a_at) / Fold change /veh ECM1 (11717891_a_at) / RFU IL23R (11748794_a_at) / Fold change /veh IL23R (11748794_a_at) / RFU TNFAIP8L3 (11732012_x_at) / Fold change /veh TNFAIP8L3 (11732012_x_at) / RFU MBOAT4 (11741988_at) / Fold change /veh MBOAT4 (11741988_at) / RFU 11764193_at / Fold change /veh 11764193_at / RFU TMEM53 (11763286_at) / Fold change /veh TMEM53 (11763286_at) / RFU MAGEB2 (11727129_at) / Fold change /veh MAGEB2 (11727129_at) / RFU TMEM200A (11744735_a_at) / Fold change /veh TMEM200A (11744735_a_at) / RFU CCDC152 (11751479_a_at) / Fold change /veh CCDC152 (11751479_a_at) / RFU FAM211A (11726209_a_at) / Fold change /veh FAM211A (11726209_a_at) / RFU RGS16 (11746705_a_at) / Fold change /veh RGS16 (11746705_a_at) / RFU VCAN (11755009_s_at) / Fold change /veh VCAN (11755009_s_at) / RFU RHOB (11743442_s_at) / Fold change /veh RHOB (11743442_s_at) / RFU RGS16 (11720943_a_at) / Fold change /veh RGS16 (11720943_a_at) / RFU RGS16 (11720944_at) / Fold change /veh RGS16 (11720944_at) / RFU, VPS4B / Fold change vs veh, VPS4B / RFU, CREB1 / Fold change vs veh, CREB1 / RFU, DNAJC13 / Fold change vs veh, DNAJC13 / RFU, GNAQ / Fold change vs veh, GNAQ / RFU, CDK5R1 / Fold change vs veh, CDK5R1 / RFU, ZRANB3 / Fold change vs veh, ZRANB3 / RFU, CUL4A / Fold change vs veh, CUL4A / RFU, CCNY / Fold change vs veh, CCNY / RFU, UFL1 / Fold change vs veh, UFL1 / RFU, COG3 / Fold change vs veh, COG3 / RFU, DIAPH2 / Fold change vs veh, DIAPH2 / RFU, SKA2 / Fold change vs veh, SKA2 / RFU, AFF3 / Fold change vs veh, AFF3 / RFU, LMF1 / Fold change vs veh, LMF1 / RFU, IPO11 / Fold change vs veh, IPO11 / RFU, DFFB / Fold change vs veh, DFFB / RFU, FOXP1 / Fold change vs veh, FOXP1 / RFU, CARD8 / Fold change vs veh, CARD8 / RFU, STRN3 / Fold change vs veh, STRN3 / RFU, ADK / Fold change vs veh, ADK / RFU, RASSF2 / Fold change vs veh, RASSF2 / RFU, WIPF1 / Fold change vs veh, WIPF1 / RFU, LARP1B / Fold change vs veh, LARP1B / RFU, RASA1 / Fold change vs veh, RASA1 / RFU, RB1 / Fold change vs veh, RB1 / RFU, PPFIA1 / Fold change vs veh, PPFIA1 / RFU, MAT2A / Fold change vs veh, MAT2A / RFU, CCT5 / Fold change vs veh, CCT5 / RFU, WDR92 / Fold change vs veh, WDR92 / RFU, CUX1 / Fold change vs veh, CUX1 / RFU, TTC7A / Fold change vs veh, TTC7A / RFU, TMEM135 / Fold change vs veh, TMEM135 / RFU, DEPTOR / Fold change vs veh, DEPTOR / RFU, CPM / Fold change vs veh, CPM / RFU, DNAJB6 / Fold change vs veh, DNAJB6 / RFU, CACNA2D3 / Fold change vs veh, CACNA2D3 / RFU, DTX4 / Fold change vs veh, DTX4 / RFU, TFCP2 / Fold change vs veh, TFCP2 / RFU, GMCL1 /// GMCL1P1 / Fold change vs veh, GMCL1 /// GMCL1P1 / RFU, AEBP2 / Fold change vs veh, AEBP2 / RFU, SNHG1 /// SNORD22 /// SNORD25 /// SNORD26 /// SNORD27 /// SNORD28 /// SNORD29 /// SNORD31 / Fold change vs veh, SNHG1 /// SNORD22 /// SNORD25 /// SNORD26 /// SNORD27 /// SNORD28 /// SNORD29 /// SNORD31 / Fold change (Aza/veh), C12orf56 (ProbeSet 11735607_a_at) / Fold change (ACY-1035/veh), C12orf56 (ProbeSet 11735607_a_at) / Fold change (Aza/veh), FGFR1OP (ProbeSet 11751329_s_at) / Fold change (ACY-1035/veh), FGFR1OP (ProbeSet 11751329_s_at) / Fold change (Aza/veh), VPS36 (ProbeSet 11739960_a_at) / Fold change (ACY-1035/veh), VPS36 (ProbeSet 11739960_a_at) / RFU SYPL1 (11715823_x_at) / Fold change /veh SYPL1 (11715823_x_at) / RFU IGFBP7 (11715501_s_at) / Fold change /veh IGFBP7 (11715501_s_at) / RFU REEP3 (11722064_at) / Fold change /veh REEP3 (11722064_at) / RFU IGLL1 (11728026_x_at) / Fold change /veh IGLL1 (11728026_x_at): dose or concentration left out as unconfirmed",
  "details": "ProbeSet 11729173_a_at; LIST D",
  "data": [
    {"smiles": "Nc1ncn([C@@H]2O[C@H](CO)[C@@H](O)[C@H]2O)c(=O)n1", "note": "[azacitidine]", "values": [
      {"measurement": "RFU, SKA2", "result": 326.42, "unit": "RFU"}
    ]}
  ]
}
